This is an account of results in patent publication US9422293B2 (priority 2006, dated 2016).

Structures can show the parent of a compound that is named as a salt.

The target in one assay is rat TRPV1 (Rattus norvegicus (Rat), UniProt O35433). The settings on record: read-out: Rat IC50.
Chain of rat TRPV1 (O35433 whole entry): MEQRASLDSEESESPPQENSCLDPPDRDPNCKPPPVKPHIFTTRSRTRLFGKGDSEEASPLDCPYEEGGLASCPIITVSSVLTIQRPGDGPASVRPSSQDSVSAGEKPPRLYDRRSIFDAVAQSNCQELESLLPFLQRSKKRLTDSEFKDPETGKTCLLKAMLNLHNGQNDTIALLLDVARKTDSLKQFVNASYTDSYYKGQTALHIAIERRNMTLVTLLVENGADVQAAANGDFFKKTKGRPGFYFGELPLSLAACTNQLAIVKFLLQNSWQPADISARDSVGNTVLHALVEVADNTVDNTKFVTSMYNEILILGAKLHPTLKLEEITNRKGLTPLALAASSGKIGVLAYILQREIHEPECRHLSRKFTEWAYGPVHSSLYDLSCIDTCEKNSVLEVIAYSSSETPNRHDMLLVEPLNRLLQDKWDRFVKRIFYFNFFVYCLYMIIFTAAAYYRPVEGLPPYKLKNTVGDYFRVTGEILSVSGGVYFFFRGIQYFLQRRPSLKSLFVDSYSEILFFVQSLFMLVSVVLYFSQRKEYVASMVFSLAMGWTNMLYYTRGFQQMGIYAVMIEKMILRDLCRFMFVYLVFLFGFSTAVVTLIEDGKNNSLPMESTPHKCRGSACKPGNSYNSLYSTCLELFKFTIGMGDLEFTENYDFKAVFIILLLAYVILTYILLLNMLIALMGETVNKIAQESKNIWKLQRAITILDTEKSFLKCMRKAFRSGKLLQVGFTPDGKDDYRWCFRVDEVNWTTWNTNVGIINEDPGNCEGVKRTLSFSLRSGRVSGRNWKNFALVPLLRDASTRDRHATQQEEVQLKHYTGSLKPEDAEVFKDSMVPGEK
As to `CC(C)(C)c1ccc(Nc2ncnc3c2CCN(c2ncccc2C(F)(F)F)CC3)cc1` [Example 1, (4-tert-Butyl-phenyl)-[7-(3-trifluoromethyl-pyridin-2-yl)-6,7,8,9-tetrahydro-5H-pyrimido[4,5-d]azepin-4-yl]-amine], the IC50 is 0.09 µM. For the molecule `FC(F)(F)c1ccc(Nc2ncnc3c2CCN(c2ncccc2C(F)(F)F)CC3)cc1` [Example 2, (4-Trifluoromethyl-phenyl)-[7-(3-trifluoromethyl-pyridin-2-yl)-6,7,8,9-tetra-hydro-5H-pyrimido[4,5-d]azepin-4-yl]-amine], the IC50 stood at 0.79 µM. With `CC(C)(C)c1ccc(Nc2nc(C3CC3)nc3c2CCN(c2ncccc2C(F)(F)F)CC3)cc1` [Example 3, (4-tert-Butyl-phenyl)-[2-cyclopropyl-7-(3-trifluoromethyl-pyridin-2-yl)-6,7,8,9-tetrahydro-5H-pyrimido[4,5-d]azepin-4-yl]-amine], the IC50 came to 0.095 µM. The same measure, in the same setting: under `FC(F)(F)c1cccnc1N1CCc2nc(C3CC3)nc(Nc3ccc(Cl)cc3)c2CC1` [Example 4, (4-Chloro-phenyl)-[2-cyclopropyl-7-(3-trifluoromethyl-pyridin-2-yl)-6,7,8,9-tetrahydro-5H-pyrimido[4,5-d]azepin-4-yl]-amine] stands 0.5 µM; under `FC(F)(F)c1ccc(Nc2nc(C3CC3)nc3c2CCN(c2ncccc2C(F)(F)F)CC3)cc1` [Example 5, [2-Cyclopropyl-7-(3-trifluoromethyl-pyridin-2-yl)-6,7,8,9-tetrahydro-5H-pyrimido[4,5-d]azepin-4-yl]-(4-trifluoromethyl-phenyl)-amine], 0.15 µM; under `CC(C)(C)c1ccc(Nc2nc(-c3ccccc3)nc3c2CCN(c2ncccc2C(F)(F)F)CC3)cc1` [Example 6, (4-tert-Butyl-phenyl)-[2-phenyl-7-(3-trifluoromethyl-pyridin-2-yl)-6,7,8,9-tetrahydro-5H-pyrimido[4,5-d]azepin-4-yl]-amine], 0.49 µM. With `FC(F)(F)c1ccc(Nc2nc(-c3ccccc3)nc3c2CCN(c2ncccc2C(F)(F)F)CC3)cc1` [Example 7, [2-Phenyl-7-(3-trifluoromethyl-pyridin-2-yl)-6,7,8,9-tetrahydro-5H-pyrimido[4,5-d]azepin-4-yl]-(4-trifluoromethyl-phenyl)-amine], the IC50 was 0.14 µM. Still for that read-out and setting: under `CC(C)c1nc2c(c(Nc3ccc(C(C)(C)C)cc3)n1)CCN(c1ncccc1C(F)(F)F)CC2` [Example 8, (4-tert-Butyl-phenyl)-[2-isopropyl-7-(3-trifluoromethyl-pyridin-2-yl)-6,7,8,9-tetrahydro-5H-pyrimido[4,5-d]azepin-4-yl]-amine] stands 0.025 µM; under `CC(C)c1nc2c(c(Nc3cccc(C(F)(F)F)c3)n1)CCN(c1ncccc1C(F)(F)F)CC2` [Example 10, [2-Isopropyl-7-(3-trifluoromethyl-pyridin-2-yl)-6,7,8,9-tetrahydro-5H-pyrimido[4,5-d]azepin-4-yl]-(3-trifluoromethyl-phenyl)-amine], 0.93 µM; under `CC(C)c1nc2c(c(NCCc3ccc(F)cc3)n1)CCN(c1ncccc1C(F)(F)F)CC2` [Example 12, [2-(4-Fluoro-phenyl)-ethyl]-[2-isopropyl-7-(3-trifluoromethyl-pyridin-2-yl)-6,7,8,9-tetrahydro-5H-pyrimido[4,5-d]azepin-4-yl]-amine], 0.95 µM. Still for that read-out and setting: for `Cc1nc2c(c(Nc3ccc(C(C)(C)C)cc3)n1)CCN(c1ncccc1C(F)(F)F)CC2` [Example 15, (4-tert-Butyl-phenyl)-[2-methyl-7-(3-trifluoromethyl-pyridin-2-yl)-6,7,8,9-tetrahydro-5H-pyrimido[4,5-d]azepin-4-yl]-amine] the value was 0.046 µM; for `Cc1nc2c(c(Nc3ccc(C(F)(F)F)cc3)n1)CCN(c1ncccc1C(F)(F)F)CC2` [Example 16, [2-Methyl-7-(3-trifluoromethyl-pyridin-2-yl)-6,7,8,9-tetrahydro-5H-pyrimido-[4,5-d]azepin-4-yl]-(4-trifluoromethyl-phenyl)-amine], 0.1 µM; for `FC(F)(F)c1ccc(Nc2nc(C3CC3)nc3c2CCN(c2ncccc2C(F)(F)F)CC3)nc1` [Example 19, [2-Cyclopropyl-7-(3-trifluoromethyl-pyridin-2-yl)-6,7,8,9-tetrahydro-5H-pyrimido[4,5-d]azepin-4-yl]-(5-trifluoromethyl-pyridin-2-yl)-amine], 0.51 µM. In the case of `CC(C)c1nc2c(c(Nc3ccc(C(F)(F)F)cn3)n1)CCN(c1ncccc1C(F)(F)F)CC2` [Example 20, [2-Isopropyl-7-(3-trifluoromethyl-pyridin-2-yl)-6,7,8,9-tetrahydro-5H-pyrimido[4,5-d]azepin-4-yl]-(5-trifluoromethyl-pyridin-2-yl)-amine], the IC50 amounted to 0.032 µM. Still for that read-out and setting: under `CC(C)c1nc2c(c(Nc3cnc4ccccc4c3)n1)CCN(c1ncccc1C(F)(F)F)CC2` [Example 21, [2-Isopropyl-7-(3-trifluoromethyl-pyridin-2-yl)-6,7,8,9-tetrahydro-5H-pyrimido[4,5-d]azepin-4-yl]-quinolin-3-yl-amine] stands 1.1 µM; under `FC(F)(F)c1ccc(Nc2nc(-c3ccccc3)nc3c2CCN(c2ncccc2C(F)(F)F)CC3)nc1` [Example 22, [2-Phenyl-7-(3-trifluoromethyl-pyridin-2-yl)-6,7,8,9-tetrahydro-5H-pyrimido[4,5-d]azepin-4-yl]-(5-trifluoromethyl-pyridin-2-yl)-amine], 0.13 µM; under `CC(C)c1nc2c(c(Nc3ccc(C(F)(F)F)nc3)n1)CCN(c1ncccc1C(F)(F)F)CC2` [Example 23, [2-Isopropyl-7-(3-trifluoromethyl-pyridin-2-yl)-6,7,8,9-tetrahydro-5H-pyrimido[4,5-d]azepin-4-yl]-(6-trifluoromethyl-pyridin-3-yl)-amine], 0.31 µM. `CC(C)c1nc2c(c(Nc3ccc(Oc4ccccc4)cc3)n1)CCN(c1ncccc1C(F)(F)F)CC2` [Example 25, [2-Isopropyl-7-(3-trifluoromethyl-pyridin-2-yl)-6,7,8,9-tetrahydro-5H-pyrimido[4,5-d]azepin-4-yl]-(4-phenoxy-phenyl)-amine]: the IC50 was found to be 0.77 µM. As for `FC(F)(F)c1ccc(Nc2ncnc3c2CCN(c2cnc4ccccc4n2)CC3)cc1` [Example 29, (7-Quinoxalin-2-yl-6,7,8,9-tetrahydro-5H-pyrimido[4,5-d]azepin-4-yl)-(4-trifluoromethyl-phenyl)-amine], the IC50 was 0.34 µM. The same measure, in the same setting: for `FC(F)(F)c1ccc(Nc2ncnc3c2CCN(c2ncccc2Cl)CC3)cc1` [Example 30, [7-(3-Chloro-pyridin-2-yl)-6,7,8,9-tetrahydro-5H-pyrimido[4,5-d]azepin-4-yl]-(4-trifluoromethyl-phenyl)-amine] the value was 1.3 µM; for `Cc1nc2ccccc2nc1N1CCc2ncnc(Nc3ccc(C(C)(C)C)cc3)c2CC1` [Example 32, (4-tert-Butyl-phenyl)-[7-(3-methyl-quinoxalin-2-yl)-6,7,8,9-tetrahydro-5H-pyrimido[4,5-d]azepin-4-yl]-amine], 0.013 µM; for `Cc1nc2ccccc2nc1N1CCc2nc(C(C)C)nc(Nc3ccc(C(C)(C)C)cc3)c2CC1` [Example 33, (4-tert-Butyl-phenyl)-[2-isopropyl-7-(3-methyl-quinoxalin-2-yl)-6,7,8,9-tetrahydro-5H-pyrimido[4,5-d]azepin-4-yl]-amine], 0.11 µM. On the same count and under the same terms, under `Cc1nc2ccccc2nc1N1CCc2nc(C(C)C)nc(Nc3ccc(C(F)(F)F)cc3)c2CC1` [Example 34, [2-Isopropyl-7-(3-methyl-quinoxalin-2-yl)-6,7,8,9-tetrahydro-5H-pyrimido-[4,5-d]azepin-4-yl]-(4-trifluoromethyl-phenyl)-amine] stands 0.36 µM; under `CC(C)c1nc2c(c(Nc3ccc(C(F)(F)F)cc3)n1)CCN(c1nc3ccccc3nc1C(F)(F)F)CC2` [Example 35, [2-Isopropyl-7-(3-trifluoromethyl-quinoxalin-2-yl)-6,7,8,9-tetrahydro-5H-pyrimido[4,5-d]azepin-4-yl]-(4-trifluoromethyl-phenyl)-amine], 2.4 µM; under `CC(C)c1nc2c(c(Nc3ccc(C(F)(F)F)cc3)n1)CCN(c1ncccc1S(C)(=O)=O)CC2` [Example 36, [2-Isopropyl-7-(3-methanesulfonyl-pyridin-2-yl)-6,7,8,9-tetrahydro-5H-pyrimido[4,5-d]azepin-4-yl]-(4-trifluoromethyl-phenyl)-amine], 0.37 µM. The same measure, in the same setting: under `CC(C)(C)c1ccc(Nc2ncnc3c2CCN(c2nncc4ccccc24)CC3)cc1` [Example 37, (4-tert-Butyl-phenyl)-(7-phthalazin-1-yl-6,7,8,9-tetrahydro-5H-pyrimido-[4,5-d]azepin-4-yl)-amine] stands 0.15 µM.

Still in this assay, the particulars now being: read-out: Rat IC50; hydrochloride salt.
With `CC(C)(C)c1ccc(Nc2ncnc3c2CCN(c2ncccc2C(F)(F)F)CC3)cc1` [Example 1A, (4-tert-Butyl-phenyl)-[7-(3-trifluoromethyl-pyridin-2-yl)-6,7,8,9-tetrahydro-5H-pyrimido[4,5-d]azepin-4-yl]-amine hydrochloride salt], the IC50 was 0.049 µM. Still for that read-out and setting: for `FC(F)(F)c1ccc(Nc2ncnc3c2CCN(c2ncccc2C(F)(F)F)CC3)cc1` [Example 2A, (4-Trifluoromethyl-phenyl)-[7-(3-trifluoromethyl-pyridin-2-yl)-6,7,8,9-tetra-hydro-5H-pyrimido[4,5-d]azepin-4-yl]-amine hydrochloride salt] the value was 0.42 µM; for `FC(F)(F)c1ccc(Nc2nc(C3CC3)nc3c2CCN(c2ncccc2C(F)(F)F)CC3)cc1` [Example 5A, [2-Cyclopropyl-7-(3-trifluoromethyl-pyridin-2-yl)-6,7,8,9-tetrahydro-5H-pyrimido[4,5-d]azepin-4-yl]-(4-trifluoromethyl-phenyl)-amine hydrochloride salt], 0.19 µM. As to `CC(C)c1nc2c(c(Nc3ccc(C(F)(F)F)cn3)n1)CCN(c1ncccc1C(F)(F)F)CC2` [Example 20A, [2-Isopropyl-7-(3-trifluoromethyl-pyridin-2-yl)-6,7,8,9-tetrahydro-5H-pyrimido[4,5-d]azepin-4-yl]-(5-trifluoromethyl-pyridin-2-yl)-amine hydrochloride salt], the half-inhibitory concentration (IC50) is 0.25 µM.

The IC50 is the concentration at which inhibition is half-maximal.
